Experimental data reported in ChEMBL document CHEMBL6177933, “Discovery of Sophoridine α-Aryl Propionamide Derivative ZM600 as a Novel Antihepatic Fibrosis Agent” (J Med Chem, 2024).
The source made the active and inactive calls. No cut-off for these calls is given here.

Key:
LX-2 [1] = test: Inhibition of FBS-induced cell migration in human LX-2 cells assessed as reduction in number of migrated cells measured after 24 hrs by crystal violet staining based transwell assay; format: functional; conditions: dose 5-20 µM
RAW264.7 [2] = test: Inhibition of LPS-induced NFkappaB transcriptional activity in mouse RAW264.7 cells at 10 uM preincubated for 2 hrs followed by LPS stimulation and measured after 6 hrs by luciferase reporter gene assay relative to control; format: cell-based; conditions: time 8.0 hrs
Mus musculus [3] = test: Antifibrotic activity against BDL-induced C57BL/6J mouse hepatic fibrosis model assessed as reduction in alphaSMA expression in liver at 15 to 30 mg/kg, po administered via gavage starting from 3 days post-BDL by immunohistochemical staining based assay; format: functional, organism-based; conditions: dose 15-30 mg/kg
Mus musculus [4] = test: Antifibrotic activity against CCL4-induced C57BL/6J mouse hepatic fibrosis model assessed as reduction in necrosis of hepatocytes at 15 to 30 mg/kg, po administered via gavage for 4 weeks starting from 5th week of CCL4 stimulation by H and E staining based histopathological analysis; format: functional, organism-based; conditions: dose 15-30 mg/kg
Mus musculus [5] = test: Antifibrotic activity against CCL4-induced C57BL/6J mouse hepatic fibrosis model assessed as reduction in collagen 1 expression in liver at 15 to 30 mg/kg, po administered via gavage for 4 weeks starting from 5th week of CCL4 stimulation by qRT-PCR analysis; format: functional, organism-based; conditions: dose 15-30 mg/kg
RAW264.7 [6] = test: Inhibition of LPS-induced NFkappaB transcriptional activity in mouse RAW264.7 cells at 5 uM preincubated for 2 hrs followed by LPS stimulation and measured after 6 hrs by luciferase reporter gene assay relative to control; format: cell-based; conditions: time 8.0 hrs
RAW264.7 [7] = test: Antiinflammatory activity in mouse RAW264.7 cells assessed as inhibition of LPS-induced alpha-SMA mRNA expression at 5 to 20 uM preincubated for 2 hrs followed by LPS stimulation and measured after 48 hrs by qRT-PCR analysis; format: functional, cell-based; conditions: dose 5-20 µM, time 50.0 hrs
LX-2 [8] = test: Inhibition of TGFbeta1-induced AKT phosphorylation in human LX-2 cells preincubated for 2 hrs followed by […] stimulation and measured after 2 hrs by Western blot analysis; format: cell-based; conditions: dose 5-20 µM, time 4.0 hrs
[9] = target: c-Jun N-terminal kinase, JNK (Homo sapiens) (UniProt P45983+P53779+P45984); test: Inhibition of TGFbeta1-induced JNK phosphorylation in human LX-2 cells at 5 to 20 uM preincubated for 2 hrs followed by […] stimulation and measured after 2 hrs by Western blot analysis; format: cell-based; conditions: dose 5-20 µM, time 4.0 hrs
LX-2 [10] = test: Inhibition of TGFbeta1-induced ERK1/2 phosphorylation in human LX-2 cells at 5 to 20 uM preincubated for 2 hrs followed by […] stimulation and measured after 2 hrs by Western blot analysis; format: cell-based; conditions: dose 5-20 µM, time 4.0 hrs
Mus musculus [11] = test: In vivo inhibition of Smad3 phosphorylation in CCL4-induced C57BL/6J mouse hepatic fibrosis model at 15 to 30 mg/kg, po administered via gavage for 4 weeks starting from 5th week of CCL4 stimulation by Western blot analysis; format: functional, organism-based; conditions: dose 15-30 mg/kg
Mus musculus [12] = test: Antifibrotic activity against BDL-induced C57BL/6J mouse hepatic fibrosis model assessed as reduction in collagen deposition in liver at 15 to 30 mg/kg, po administered via gavage starting from 3 days post-BDL by Sirius Red and Masson staining based assay; format: functional, organism-based; conditions: dose 15-30 mg/kg
[13] = target: Mothers against decapentaplegic homolog 3 (Homo sapiens) (UniProt P84022); test: Inhibition of TGFbeta1-induced Smad3 phosphorylation in human LX-2 cells preincubated for 2 hrs followed by […] stimulation and measured after 2 hrs by Western blot analysis; format: cell-based; conditions: dose 5-20 µM, time 4.0 hrs
Mus musculus [14] = test: Antifibrotic activity against CCL4-induced C57BL/6J mouse hepatic fibrosis model assessed as reduction in collagen 1 expression in liver at 15 to 30 mg/kg, po administered via gavage for 4 weeks starting from 5th week of CCL4 stimulation by Western blot analysis; format: functional, organism-based; conditions: dose 15-30 mg/kg
RAW264.7 [15] = test: Antiinflammatory activity in mouse RAW264.7 cells assessed as inhibition of TGFbeta1-induced alpha-SMA expression at 5 to 20 uM preincubated for 2 hrs […] and measured after 48 hrs by Western blot analysis; format: functional, cell-based; conditions: dose 5-20 µM, time 50.0 hrs
LX-2 [16] = test: Inhibition of FBS-induced cell migration in human LX-2 cells assessed as reduction in wound healing measured after 24 hrs by scratch wound assay; format: functional, cell-based; conditions: dose 5-20 µM
Mus musculus [17] = test: In vivo inhibition of AKT phosphorylation in CCL4-induced C57BL/6J mouse hepatic fibrosis model at 15 to 30 mg/kg, po administered via gavage for 4 weeks starting from 5th week of CCL4 stimulation by Western blot analysis; format: functional, organism-based; conditions: dose 15-30 mg/kg
RAW264.7 [18] = test: Antiinflammatory activity in mouse RAW264.7 cells assessed as inhibition of TGFbeta1-induced collagen 1 expression at 5 to 20 uM preincubated for 2 hrs […] and measured after 48 hrs by Western blot analysis; format: functional, cell-based; conditions: dose 5-20 µM, time 50.0 hrs
[19] = target: MAP kinase p38 (Homo sapiens) (UniProt O15264+Q15759+Q16539+P53778); test: Inhibition of TGFbeta1-induced p38 phosphorylation in human LX-2 cells at 5 to 20 uM preincubated for 2 hrs followed by […] stimulation and measured after 2 hrs by Western blot analysis; format: cell-based; conditions: dose 5-20 µM, time 4.0 hrs
Mus musculus [20] = test: In vivo inhibition of ERK1/2 phosphorylation in BDL-induced C57BL/6J mouse hepatic fibrosis model at 15 to 30 mg/kg, po administered via gavage starting from 3 days post-BDL by Western blot analysis; format: functional, organism-based; conditions: dose 15-30 mg/kg
[21] = target: Nuclear factor NF-kappa-B complex (Homo sapiens) (UniProt Q00653+P19838+Q04206); test: Inhibition of LPS-induced NFkappaB activation in human LX-2 cells assessed as reduction in p65 phosphorylation preincubated for 2 hrs followed by LPS stimulation and measured after 2 hrs by Western blot analysis; format: cell-based; conditions: dose 5-20 µM, time 4.0 hrs
Mus musculus [22] = test: In vivo inhibition of p38 phosphorylation in BDL-induced C57BL/6J mouse hepatic fibrosis model at 15 to 30 mg/kg, po administered via gavage starting from 3 days post-BDL by Western blot analysis; format: functional, organism-based; conditions: dose 15-30 mg/kg
RAW264.7 [23] = test: Inhibition of LPS-induced NFkappaB transcriptional activity in mouse RAW264.7 cells at 20 uM preincubated for 2 hrs followed by LPS stimulation and measured after 6 hrs by luciferase reporter gene assay relative to control; format: cell-based; conditions: time 8.0 hrs
Mus musculus [24] = test: Antifibrotic activity against CCL4-induced C57BL/6J mouse hepatic fibrosis model assessed as reduction in alphaSMA expression in liver at 15 to 30 mg/kg, po administered via gavage for 4 weeks starting from 5th week of CCL4 stimulation by qRT-PCR analysis; format: functional, organism-based; conditions: dose 15-30 mg/kg
RAW264.7 [25] = test: Antiinflammatory activity in mouse RAW264.7 cells assessed as inhibition of LPS-induced collagen 1 mRNA expression at 5 to 20 uM preincubated for 2 hrs followed by LPS stimulation and measured after 48 hrs by qRT-PCR analysis; format: functional, cell-based; conditions: dose 5-20 µM, time 50.0 hrs
Mus musculus [26] = test: In vivo inhibition of JNK phosphorylation in BDL-induced C57BL/6J mouse hepatic fibrosis model at 15 to 30 mg/kg, po administered via gavage starting from 3 days post-BDL by Western blot analysis; format: functional, organism-based; conditions: dose 15-30 mg/kg

Chain of Nuclear factor NF-kappa-B complex (Homo sapiens) (P19838 whole entry, looked up): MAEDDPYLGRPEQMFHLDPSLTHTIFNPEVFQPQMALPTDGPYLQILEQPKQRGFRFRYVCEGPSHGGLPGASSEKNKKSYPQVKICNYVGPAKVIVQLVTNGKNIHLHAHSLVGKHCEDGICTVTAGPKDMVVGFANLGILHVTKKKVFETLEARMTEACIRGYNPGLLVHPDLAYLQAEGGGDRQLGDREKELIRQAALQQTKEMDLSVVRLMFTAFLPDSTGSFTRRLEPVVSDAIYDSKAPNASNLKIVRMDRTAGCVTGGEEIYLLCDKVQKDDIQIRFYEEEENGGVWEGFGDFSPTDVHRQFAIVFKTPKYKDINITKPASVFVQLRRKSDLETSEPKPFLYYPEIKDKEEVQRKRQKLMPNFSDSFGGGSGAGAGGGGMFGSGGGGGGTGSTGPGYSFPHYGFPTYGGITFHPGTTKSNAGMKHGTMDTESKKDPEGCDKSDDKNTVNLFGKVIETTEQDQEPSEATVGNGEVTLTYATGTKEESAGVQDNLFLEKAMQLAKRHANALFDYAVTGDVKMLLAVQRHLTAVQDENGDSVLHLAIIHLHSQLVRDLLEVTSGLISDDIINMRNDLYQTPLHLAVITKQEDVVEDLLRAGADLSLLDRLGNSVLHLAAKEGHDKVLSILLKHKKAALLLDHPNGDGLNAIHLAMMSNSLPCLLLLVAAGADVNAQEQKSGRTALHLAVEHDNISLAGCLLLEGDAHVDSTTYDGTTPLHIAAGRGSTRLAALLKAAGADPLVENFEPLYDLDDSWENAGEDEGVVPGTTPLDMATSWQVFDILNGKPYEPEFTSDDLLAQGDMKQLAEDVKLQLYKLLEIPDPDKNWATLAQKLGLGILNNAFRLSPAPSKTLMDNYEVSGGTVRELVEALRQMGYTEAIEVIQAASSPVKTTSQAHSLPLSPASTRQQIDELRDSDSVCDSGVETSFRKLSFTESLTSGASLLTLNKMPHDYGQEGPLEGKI
Chain of Nuclear factor NF-kappa-B complex (Homo sapiens) (Q00653 whole entry, looked up): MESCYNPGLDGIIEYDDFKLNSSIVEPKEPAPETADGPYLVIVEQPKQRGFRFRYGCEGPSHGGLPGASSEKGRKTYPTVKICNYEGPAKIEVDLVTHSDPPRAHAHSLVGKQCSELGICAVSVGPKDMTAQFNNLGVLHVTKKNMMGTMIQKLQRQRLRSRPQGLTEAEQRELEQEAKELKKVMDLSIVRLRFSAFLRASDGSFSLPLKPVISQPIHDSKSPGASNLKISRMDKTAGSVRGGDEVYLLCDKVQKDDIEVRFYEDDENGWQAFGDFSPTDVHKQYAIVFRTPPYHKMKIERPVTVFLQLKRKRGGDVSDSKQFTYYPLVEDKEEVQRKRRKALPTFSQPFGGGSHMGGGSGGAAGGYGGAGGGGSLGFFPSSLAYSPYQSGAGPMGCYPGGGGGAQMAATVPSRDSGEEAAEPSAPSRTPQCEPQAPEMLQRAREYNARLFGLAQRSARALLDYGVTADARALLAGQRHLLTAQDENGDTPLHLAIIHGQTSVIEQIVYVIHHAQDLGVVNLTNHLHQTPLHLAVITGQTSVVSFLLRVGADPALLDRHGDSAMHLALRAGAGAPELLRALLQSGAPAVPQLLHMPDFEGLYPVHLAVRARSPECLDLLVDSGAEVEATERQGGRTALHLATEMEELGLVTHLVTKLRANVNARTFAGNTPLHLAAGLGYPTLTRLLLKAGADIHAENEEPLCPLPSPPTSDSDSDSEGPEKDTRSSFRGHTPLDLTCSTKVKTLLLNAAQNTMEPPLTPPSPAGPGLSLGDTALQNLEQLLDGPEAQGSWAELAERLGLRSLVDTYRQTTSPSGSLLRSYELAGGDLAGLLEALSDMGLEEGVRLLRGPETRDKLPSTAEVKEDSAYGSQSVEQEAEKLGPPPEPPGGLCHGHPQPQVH
Chain of Nuclear factor NF-kappa-B complex (Homo sapiens) (Q04206 whole entry, looked up): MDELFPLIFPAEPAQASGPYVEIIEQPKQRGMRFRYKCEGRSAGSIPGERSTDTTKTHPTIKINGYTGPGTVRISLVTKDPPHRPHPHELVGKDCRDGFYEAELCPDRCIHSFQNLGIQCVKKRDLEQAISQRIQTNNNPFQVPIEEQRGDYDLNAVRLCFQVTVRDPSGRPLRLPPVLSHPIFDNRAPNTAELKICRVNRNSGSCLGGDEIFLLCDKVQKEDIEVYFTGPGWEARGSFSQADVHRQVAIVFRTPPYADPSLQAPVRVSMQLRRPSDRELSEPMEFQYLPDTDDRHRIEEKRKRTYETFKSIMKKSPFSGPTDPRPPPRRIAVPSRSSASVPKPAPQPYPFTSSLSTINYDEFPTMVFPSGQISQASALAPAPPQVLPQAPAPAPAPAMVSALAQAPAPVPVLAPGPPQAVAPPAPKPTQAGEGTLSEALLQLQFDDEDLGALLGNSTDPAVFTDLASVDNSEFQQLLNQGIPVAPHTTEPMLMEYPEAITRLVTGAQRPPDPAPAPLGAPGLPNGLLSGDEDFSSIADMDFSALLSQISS
Chain of Mothers against decapentaplegic homolog 3 (Homo sapiens) (P84022 2-425 limits assumed): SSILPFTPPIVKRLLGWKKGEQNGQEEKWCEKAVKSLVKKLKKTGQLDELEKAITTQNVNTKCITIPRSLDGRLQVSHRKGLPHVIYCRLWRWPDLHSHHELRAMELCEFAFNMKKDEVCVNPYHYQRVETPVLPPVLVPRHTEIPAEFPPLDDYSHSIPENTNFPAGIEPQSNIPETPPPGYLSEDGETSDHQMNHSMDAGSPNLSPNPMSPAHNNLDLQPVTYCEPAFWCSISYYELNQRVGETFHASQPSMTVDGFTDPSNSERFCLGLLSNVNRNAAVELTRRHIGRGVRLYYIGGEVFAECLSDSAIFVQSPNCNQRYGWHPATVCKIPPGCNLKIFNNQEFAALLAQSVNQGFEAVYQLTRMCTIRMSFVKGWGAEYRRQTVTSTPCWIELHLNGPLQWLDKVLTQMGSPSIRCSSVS

COC(=O)CCC[C@@H]1[C@H]2CCCN3CCC[C@H](CN1C(=O)C(C)c1ccc(-c4ccccc4)c(F)c1)[C@@H]23 (stereo partly specified)
inhibition (LX-2 [1]): Dose-dependent-effect
fold change (FC) (RAW264.7 [2]): 0.71
Activity (Mus musculus [3]): Active
Activity (Mus musculus [4]): Active
Activity (Mus musculus [5]): Active
fold change (FC) (RAW264.7 [6]): 0.86
inhibition (RAW264.7 [7]): Active
inhibition (LX-2 [8]): Dose-dependent-effect
inhibition [9]: inactive
inhibition (LX-2 [10]): inactive
inhibition (Mus musculus [11]): Active
Activity (Mus musculus [12]): Active
inhibition [13]: Dose-dependent-effect
Activity (Mus musculus [14]): Active
inhibition (RAW264.7 [15]): Active
inhibition (LX-2 [16]): Dose-dependent-effect
inhibition (Mus musculus [17]): Active
inhibition (RAW264.7 [18]): Active
inhibition [19]: inactive
inhibition (Mus musculus [20]): inactive
inhibition [21]: Dose-dependent-effect
inhibition (Mus musculus [22]): inactive
fold change (FC) (RAW264.7 [23]): 0.59
Activity (Mus musculus [24]): Active
inhibition (RAW264.7 [25]): Active
inhibition (Mus musculus [26]): inactive
